Results: the NIST ThermoML archive (doi:10.1016/j.jct.2008.10.010)

Assay: molar heat capacity at constant pressure; xn = mol fraction of the nth substance listed
Settings: 101.3 kPa, Liquid, Small sample (50 mg) DSC

CCC(C)(C)O [2-methylbutan-2-ol] + CCCCCCC
Settings | molar heat capacity at constant pressure [J/K/mol]
327.15 K, x1 = 0.1547 | 258.26
327.15 K, x1 = 0.2993 | 269.94
327.15 K, x1 = 0.4051 | 274.66
327.15 K, x1 = 0.4986 | 277.47
327.15 K, x1 = 0.5981 | 279.08
327.15 K, x1 = 0.7015 | 280.02
327.15 K, x1 = 0.8023 | 279.59
327.15 K, x1 = 0.9139 | 278.56
327.15 K, x1 = 0.9609 | 277.44
328.15 K, x1 = 0.0061 | 236.22
328.15 K, x1 = 0.0249 | 237.72
328.15 K, x1 = 0.0494 | 242.15
328.15 K, x1 = 0.1 | 251.24
328.15 K, x1 = 0.1547 | 258.56
328.15 K, x1 = 0.1999 | 263.19
328.15 K, x1 = 0.2993 | 270.46
328.15 K, x1 = 0.4051 | 275.23
328.15 K, x1 = 0.4986 | 278.16
328.15 K, x1 = 0.5981 | 279.9
328.15 K, x1 = 0.7015 | 280.91
328.15 K, x1 = 0.8023 | 280.5
328.15 K, x1 = 0.9139 | 279.46
328.15 K, x1 = 0.9609 | 278.39
329.14 K, x1 = 0.0061 | 236.63
329.14 K, x1 = 0.0249 | 238.11
329.14 K, x1 = 0.0494 | 242.34
329.14 K, x1 = 0.1 | 251.42
329.14 K, x1 = 0.1547 | 258.8
329.14 K, x1 = 0.1999 | 263.54
329.14 K, x1 = 0.2993 | 270.92
329.14 K, x1 = 0.4051 | 275.78
329.14 K, x1 = 0.4986 | 278.83
329.14 K, x1 = 0.5981 | 280.59
329.14 K, x1 = 0.7015 | 281.67
329.14 K, x1 = 0.8023 | 281.37
329.14 K, x1 = 0.9139 | 280.33
329.14 K, x1 = 0.9609 | 279.29
330.14 K, x1 = 0.0061 | 237.14
330.14 K, x1 = 0.1 | 251.61
330.14 K, x1 = 0.1547 | 259.04
330.14 K, x1 = 0.2993 | 271.42
330.14 K, x1 = 0.4986 | 279.45
330.14 K, x1 = 0.5981 | 281.32
330.14 K, x1 = 0.7015 | 282.46
330.14 K, x1 = 0.8023 | 282.14
330.14 K, x1 = 0.9139 | 281.17
330.14 K, x1 = 0.9609 | 280.09
330.15 K, x1 = 0.0249 | 238.44
330.15 K, x1 = 0.0494 | 242.58
330.15 K, x1 = 0.1999 | 263.87
330.15 K, x1 = 0.4051 | 276.4
331.15 K, x1 = 0.0061 | 237.49
331.15 K, x1 = 0.0249 | 238.7
331.15 K, x1 = 0.0494 | 242.66
331.15 K, x1 = 0.1 | 251.73
331.15 K, x1 = 0.1547 | 259.17
331.15 K, x1 = 0.1999 | 264.08
331.15 K, x1 = 0.2993 | 271.78
331.15 K, x1 = 0.4051 | 276.82
331.15 K, x1 = 0.4986 | 280.03
331.15 K, x1 = 0.5981 | 282
331.15 K, x1 = 0.7015 | 283.13
331.15 K, x1 = 0.8023 | 282.9
331.15 K, x1 = 0.9139 | 281.93
331.15 K, x1 = 0.9609 | 280.9
332.11 K, x1 = 0.4051 | 277.29
332.14 K, x1 = 0.0061 | 237.91
332.14 K, x1 = 0.0249 | 239.06
332.14 K, x1 = 0.0494 | 242.88
332.14 K, x1 = 0.1 | 251.74
332.14 K, x1 = 0.1547 | 259.34
332.14 K, x1 = 0.1999 | 264.36
332.14 K, x1 = 0.2993 | 272.13
332.14 K, x1 = 0.4986 | 280.59
332.14 K, x1 = 0.5981 | 282.58
332.14 K, x1 = 0.7015 | 283.9
332.14 K, x1 = 0.8023 | 283.62
332.14 K, x1 = 0.9139 | 282.68
332.14 K, x1 = 0.9609 | 281.66
333.14 K, x1 = 0.0061 | 238.38
333.14 K, x1 = 0.0249 | 239.45
333.14 K, x1 = 0.0494 | 243.08
333.14 K, x1 = 0.1 | 251.95
333.14 K, x1 = 0.1547 | 259.59
333.14 K, x1 = 0.1999 | 264.68
333.14 K, x1 = 0.2993 | 272.54
333.14 K, x1 = 0.4051 | 277.88
333.14 K, x1 = 0.4986 | 281.17
333.14 K, x1 = 0.7015 | 284.62
333.14 K, x1 = 0.8023 | 284.48
333.14 K, x1 = 0.9139 | 283.56
333.14 K, x1 = 0.9609 | 282.52
333.15 K, x1 = 0.5981 | 283.29
334.04 K, x1 = 0.0249 | 239.87
334.15 K, x1 = 0.0061 | 238.94
334.15 K, x1 = 0.0494 | 243.42
334.15 K, x1 = 0.1 | 252.08
334.15 K, x1 = 0.1547 | 259.81
334.15 K, x1 = 0.1999 | 264.99
334.15 K, x1 = 0.2993 | 272.99
334.15 K, x1 = 0.4051 | 278.43
334.15 K, x1 = 0.4986 | 281.83
334.15 K, x1 = 0.5981 | 284.02
334.15 K, x1 = 0.7015 | 285.36
334.15 K, x1 = 0.8023 | 285.27
334.15 K, x1 = 0.9139 | 284.32
334.15 K, x1 = 0.9609 | 283.36
334.33 K, x1 = 0.0249 | 239.98
335.14 K, x1 = 0.0061 | 239.28
335.14 K, x1 = 0.0249 | 240.2
335.14 K, x1 = 0.0494 | 243.54
335.14 K, x1 = 0.1 | 252.23
335.14 K, x1 = 0.1547 | 259.88
335.14 K, x1 = 0.1999 | 265.1
335.14 K, x1 = 0.2993 | 273.19
335.14 K, x1 = 0.4051 | 278.76
335.14 K, x1 = 0.4986 | 282.26
335.14 K, x1 = 0.5981 | 284.55
335.14 K, x1 = 0.7015 | 286
335.14 K, x1 = 0.8023 | 285.89
335.14 K, x1 = 0.9139 | 285.08
335.14 K, x1 = 0.9609 | 284.15
336.14 K, x1 = 0.0061 | 239.67
336.14 K, x1 = 0.0249 | 240.6
336.14 K, x1 = 0.0494 | 243.78
